These compounds were tested against MAGL (Homo sapiens (Human), UniProt Q99685) (assay: In vitro competitive activity-based protein profiling (human prefrontal cortex membrane fractions, FP-Rh probe), MAGL band). Details: read-out: MAGL IC50 (μM) (human); human prefrontal cortex membrane fractions.
Sequence of MAGL (Q99685 whole entry): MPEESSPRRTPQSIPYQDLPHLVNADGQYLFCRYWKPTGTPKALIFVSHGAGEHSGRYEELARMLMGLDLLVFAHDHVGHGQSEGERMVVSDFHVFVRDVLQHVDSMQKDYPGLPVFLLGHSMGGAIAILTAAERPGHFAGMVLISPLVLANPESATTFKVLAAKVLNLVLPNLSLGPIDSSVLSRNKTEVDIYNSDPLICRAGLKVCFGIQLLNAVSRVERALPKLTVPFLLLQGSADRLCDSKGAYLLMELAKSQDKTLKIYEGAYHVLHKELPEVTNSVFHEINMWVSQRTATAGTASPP

Compound	IC50 [µM]
O=C(O)c1nn(C(=O)N2CC3CN(Cc4ccc(N5CCCC5)cc4C(F)(F)F)CC3C2)cc1Cl (stereo not drawn) [Example 140, 4-chloro-1-(5-(4-(pyrrolidin-1-yl)-2-(trifluoromethyl)-benzyl)-octahydropyrrolo-[3,4-c]pyrrole-2-carbonyl)-1H-pyrazole-3-carboxylic acid]	< 0.1
O=C(O)c1ccn(C(=O)N2CCN(Cc3ccc(C(F)(F)F)cc3N3CCCC3)CC2)n1 [Example 83, 1-(4-(2-(pyrrolidin-1-yl)-4-(trifluoromethyl)-benzyl)-piperazine-1-carbonyl)-1H-pyrazole-3-carboxylic acid]	< 0.1
CC(C)(O)COc1cccc(CO[C@H]2C[C@@H]3CN(C(=O)n4ccc(C(=O)O)n4)C[C@@H]3C2)c1Cl [Example 38, 1-(trans-5-((2-Chloro-3-(2-hydroxy-2-methylpropoxy)benzyl)oxy)octahydrocyclopenta[c]pyrrole-2-carbonyl)-1H-pyrazole-3-carboxylic Acid]	< 0.1
O=C(O)c1nn(C(=O)N2CCN(Cc3cccc(Oc4cc(C(F)(F)F)ccn4)c3)CC2)cc1C(F)(F)F [Example 414, 4-(trifluoromethyl)-1-(4-(3-((4-(trifluoromethyl)-pyridin-2-yl)oxy)benzyl)-piperazine-1-carbonyl)-1H-pyrazole-3-carboxylic acid]	< 0.1
C[C@H]1CN(Cc2cccc(OCC(C)(C)O)c2Cl)CCN1C(=O)n1ccc(C(N)=O)n1 [Example 450, (S)-1-(4-(2-chloro-3-(2-hydroxy-2-methylpropoxy)-benzyl)-2-methylpiperazine-1-carbonyl)-1H-pyrazole-3-carboxamide]	< 0.1
O=C(O)c1ccn(C(=O)N2C[C@H]3C[C@H](Oc4cccc(N5CCCC5)c4)C[C@H]3C2)n1 [Example 234, 1-(trans-5-(3-(pyrrolidin-1-yl)phenoxy)-octahydrocyclopenta-[c]pyrrole-2-cathonyl)-1H-pyrazole-3-carboxylic acid]	< 0.1
O=C(O)c1ccn(C(=O)N2C[C@H]3C[C@H](OCc4cc(F)cc(Cl)c4)C[C@H]3C2)n1 [Example 53, 1-(trans-5-((3-chloro-5-fluorobenzyl)oxy)-octahydrocyclopenta-[c]pyrrole-2-carbonyl)-1H-pyrazole-3-carboxylic acid]	< 0.1
O=C(O)c1ccn(C(=O)N2CCN(Cc3cccc(Oc4cnccc4C(F)(F)F)c3)CC2)n1 [Example 352, 1-(4-(3-((4-(trifluoromethyl)-pyridin-3-yl)oxy)-benzyl)-piperazine-1-carbonyl)-1H-pyrazole-3-carboxylic acid]	< 0.1
NC(=O)c1ccn(C(=O)N2CCC3(CCN(Cc4cccc(C(F)(F)F)c4)C3)C2)n1 (stereo not drawn) [Example 429, 1-(7-(3-(trifluoromethyl)-benzyl)-2,7-diazaspiro[4.4]-nonane-2-carbonyl)-1H-pyrazole-3-carboxamide]	< 0.1
CC(C)(O)COc1cccc(CN2CCN(C(=O)n3ccc(C(N)=O)n3)CC2)c1Cl [Example 37, 1-(4-(2-Chloro-3-(2-hydroxy-2-methylpropoxy)benzyl)piperazine-1-carbonyl)-1H-pyrazole-3-carboxamide]	< 0.1
O=C(O)c1ccn(C(=O)N2C[C@H]3C[C@H](OCc4cccc(C(F)(F)F)c4)C[C@H]3C2)n1 [Example 157, 1-(trans-5-((3-(trifluoromethyl)-benzyl)oxy)-octahydrocyclopenta-[c]pyrrole-2-carbonyl)-1H-pyrazole-3-carboxylic acid]	< 0.1
CNC(=O)c1ccn(C(=O)N2CCC3(CCN(Cc4cc(Cl)ccc4Cl)C3)C2)n1 (stereo not drawn) [Example 428, 1-(7-(2,5-dichlorobenzyl)-2,7-diazaspiro[4.4]-nonane-2-carbonyl)-N-methyl-1H-pyrazole-3-carboxamide]	< 0.1
O=C(O)c1ccn(C(=O)N2CCN(Cc3ccc(C(F)(F)F)cc3N3CC[C@H](F)C3)CC2)n1 [Example 92, (S)-1-(4-(2-(3-fluoropyrrolidin-1-yl)-4-(trifluoromethyl)-benzyl)-piperazine-1-carbonyl)-1H-pyrazole-3-carboxylic acid]	< 0.1
O=C(O)c1ccn(C(=O)N2CCC3(CCN(Cc4cc(Cl)ccc4OC(F)(F)F)C3)CC2)n1 [Example 371, 1-(2-(5-chloro-2-(trifluoromethoxy)-benzyl)-2,8-diazaspiro[4.5]-decane-8-carbonyl)-1H-pyrazole-3-carboxylic acid]	< 0.1
C[C@@H]1CC[C@@H](C)N1c1cc(C(F)(F)F)ccc1CN1CCN(C(=O)n2ccc(C(=O)O)n2)CC1 [Example 359, 1-(4-(2-((2R,5R)-2,5-dimethylpyrrolidin-1-yl)-4-(trifluoromethyl)-benzyl)piperazine-1-carbonyl)-1H-pyrazole-3-carboxylic acid]	< 0.1
COc1cc(-c2ccccc2)ccc1CN1CCN(C(=O)n2ccc(C(=O)O)n2)[C@H](C)C1 [Example 283, (R)-1-(4-((3-methoxy-[1,1′-biphenyl]-4-yl)methyl)-2-methylpiperazine-1-carbonyl)-1H-pyrazole-3-carboxylic acid]	< 0.1
CNC(=O)c1ccn(C(=O)N2CC3CN(Cc4ccc(Cl)cc4)CC3C2)n1 (stereo not drawn) [Example 424, 1-(5-(4-chlorobenzyl)-octahydropyrrolo-[3,4-c]pyrrole-2-carbonyl)-N-methyl-1H-pyrazole-3-carboxamide]	< 0.1

Compound	IC50 [µM]
CC(C)(O)CN(Cc1cccc(C(F)(F)F)c1)C1CCN(C(=O)n2ccc(C(N)=O)n2)CC1 [Example 36, 1-(4-((2-Hydroxy-2-methylpropyl)(3-(trifluoromethyl)benzyl)amino)piperidine-1-carbonyl)-1H-pyrazole-3-carboxamide]	< 0.1
Cc1cc(-c2ccccc2)ccc1CN1CCN(C(=O)n2ccc(C(=O)O)n2)C(C)C1 (stereo not drawn) [Example 89, 1-(2-methyl-4-((3-methyl-[1,1′-biphenyl]-4-yl)methyl)-piperazine-1-carbonyl)-1H-pyrazole-3-carboxylic acid]	< 0.1
Cc1cn(C(=O)N2CCN(Cc3cc(F)cc(Oc4ccc(Cl)cc4)c3)CC2)nc1C(=O)O [Example 346, 1-(4-(3-(4-chlorophenoxy)-5-fluorobenzyl)-piperazine-1-carbonyl)-4-methyl-1H-pyrazole-3-carboxylic acid]	< 0.1
O=C(O)c1nn(C(=O)N2CCN(Cc3cccc(Oc4cc(C(F)(F)F)ccn4)c3)CC2)cc1Cl [Example 399, 4-chloro-1-(4-(3-((4-(trifluoromethyl)-pyridin-2-yl)oxy)benzyl)piperazine-1-carbonyl)-1H-pyrazole-3-carboxylic acid]	< 0.1
O=C(O)c1ccn(C(=O)N2C[C@H]3C[C@H](Oc4ccccc4-c4ccccc4)C[C@H]3C2)n1 [Example 239, 1-(trans-5-([1,1′-biphenyl]-2-yloxy)-octahydrocyclopenta-[c]pyrrole-2-carbonyl)-1H-pyrazole-3-carboxylic acid]	< 0.1
C[C@@H]1CN(Cc2cc(Cl)cc(C(F)(F)F)c2)CCN1C(=O)n1ccc(C(N)=O)n1 [Example 272, (R)-1-(4-(3-chloro-5-(trifluoromethyl)-benzyl)-2-methylpiperazine-1-carbonyl)-1H-pyrazole-3-carboxamide]	< 0.1
O=C(O)c1nn(C(=O)N2CCC3(CCN(Cc4cc(Cl)ccc4C(F)(F)F)C3)CC2)cc1C(F)(F)F [Example 148, 1-(2-(5-chloro-2-(trifluoromethyl)-benzyl)-2,8-diazaspiro[4.5]-decane-8-carbonyl)-4-(trifluoromethyl)-1H-pyrazole-3-carboxylic acid]	< 0.1
C[C@@H]1CN(Cc2ccc(C(F)(F)F)cc2N2CCCC2)CCN1C(=O)n1ccc(C(N)=O)n1 [Example 325, (R)-1-(2-methyl-4-(2-(pyrrolidin-1-yl)-4-(trifluoromethyl)-benzyl)piperazine-1-carbonyl)-1H-pyrazole-3-carboxamide]	< 0.1
O=C(O)c1ccn(C(=O)N2CCN(Cc3cccc(Oc4ccccc4Cl)c3)CC2)n1 [Example 85, 1-(4-(3-(2-chlorophenoxy)-benzyl)piperazine-1-carbonyl)-1H-pyrazole-3-carboxylic acid]	< 0.1
CNC(=O)c1ccn(C(=O)N2CC3CN(Cc4cc(Cl)ccc4Cl)CC3C2)n1 (stereo not drawn) [Example 430, 1-(5-(2,5-dichlorobenzyl)-octahydropyrrolo-[3,4-c]pyrrole-2-carbonyl)-N-methyl-1H-pyrazole-3-carboxamide]	< 0.1
O=C(O)c1ccn(C(=O)N2CCC3(CCN(Cc4cccc(-c5ccccc5)c4Cl)C3)CC2)n1 [Example 358, 1-(2-((2-chloro-[1,1′-biphenyl]-3-yl)methyl)-2,8-diazaspiro[4.5]-decane-8-carbonyl)-1H-pyrazole-3-carboxylic acid]	< 0.1
O=C(O)c1nn(C(=O)N2CCC3(CCN(Cc4ccc(N5CCCC5)cc4C(F)(F)F)C3)CC2)cc1Cl [Example 138, 4-chloro-1-(2-(4-(pyrrolidin-1-yl)-2-(trifluoromethyl)-benzyl)-2,8-diazaspiro[4.5]-decane-8-carbonyl)-1H-pyrazole-3-carboxylic acid]	< 0.1
O=C(O)c1ccn(C(=O)N2CCN(Cc3cc(F)cc(Oc4cccc(Cl)c4)c3)CC2)n1 [Example 321, 1-(4-(3-(3-chlorophenoxy)-5-fluorobenzyl)-piperazine-1-carbonyl)-1H-pyrazole-3-carboxylic acid]	< 0.1
CC(C)COc1cccc(O[C@H]2C[C@@H]3CN(C(=O)n4ccc(C(=O)O)n4)C[C@@H]3C2)c1Cl [Example 448]	< 0.1
O=C(O)c1ccn(C(=O)N2CCC(OCc3cc(Cl)cc(Oc4ccc(Cl)cc4)c3)CC2)n1 [Example 27, 1-(4-((3-Chloro-5-(4-chlorophenoxy)benzyl)oxy)piperidine-1-carbonyl)-1H-pyrazole-3-carboxylic Acid]	< 0.1
CNC(=O)c1ccn(C(=O)N2CC3CN(Cc4ccc(N5CCOCC5)cc4C(F)(F)F)CC3C2)n1 (stereo not drawn) [Example 440, N-methyl-1-(5-(4-morpholino-2-(trifluoromethyl)-benzyl)-octahydropyrrolo-[3,4-c]pyrrole-2-carbonyl)-1H-pyrazole-3-carboxamide]	< 0.1

Source: patent US10927105B1 (Lundbeck La Jolla Research Center, Inc., priority 2017, dated 2021)
